# Measurements taken from PubChem BioAssay (NCI).
#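 Compound exposure: 48 hours, 5 concentrations, 96-well plates. GI50 is the concentration that inhibits growth by half. Definition used: TGI = concentration required for complete inhibition of growth.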
# Legend:
# Experiment in all cases: NCI tumour cell line growth inhibition, 48 h
# HCC-2998 colon = tested on: HCC-2998 colon
# OVCAR-5 ovarian = tested on: OVCAR-5 ovarian
# ACHN renal = tested on: ACHN renal
# SK-OV-3 ovarian = tested on: SK-OV-3 ovarian
# SK-MEL-2 melanoma = tested on: SK-MEL-2 melanoma
# SNB-75 CNS = tested on: SNB-75 CNS
# NCI-H226 lung = tested on: NCI-H226 lung
# NCI/ADR-RES ovarian = tested on: NCI/ADR-RES ovarian
# EKVX NSCLC = tested on: EKVX NSCLC
# TK-10 renal = tested on: TK-10 renal
# T-47D breast = tested on: T-47D breast
# RPMI-8226 leukemia = tested on: RPMI-8226 leukemia
# K-562 leukemia = tested on: K-562 leukemia
# KM12 colon = tested on: KM12 colon
# UACC-257 melanoma = tested on: UACC-257 melanoma
# HS 578T breast = tested on: HS 578T breast
# OVCAR-8 ovarian = tested on: OVCAR-8 ovarian
# SN12C renal = tested on: SN12C renal
# NCI-H460 lung = tested on: NCI-H460 lung
# HOP-62 NSCLC = tested on: HOP-62 NSCLC
# MOLT-4 leukemia = tested on: MOLT-4 leukemia
# HCT-116 colon = tested on: HCT-116 colon
# NCI-H23 lung = tested on: NCI-H23 lung
# SF-539 CNS = tested on: SF-539 CNS
# DU-145 prostate = tested on: DU-145 prostate
# U251 CNS = tested on: U251 CNS
# HCT-15 colon = tested on: HCT-15 colon
# MALME-3M melanoma = tested on: MALME-3M melanoma
# OVCAR-4 ovarian = tested on: OVCAR-4 ovarian
# CCRF-CEM leukemia = tested on: CCRF-CEM leukemia
# IGROV1 ovarian = tested on: IGROV1 ovarian
# SK-MEL-28 melanoma = tested on: SK-MEL-28 melanoma
# PC-3 prostate = tested on: PC-3 prostate
# SNB-19 CNS = tested on: SNB-19 CNS
# SR leukemia = tested on: SR leukemia
# 786-0 renal = tested on: 786-0 renal
# M14 melanoma = tested on: M14 melanoma
# NCI-H522 lung = tested on: NCI-H522 lung
# HL-60(TB) leukemia = tested on: HL-60(TB) leukemia
# UO-31 renal = tested on: UO-31 renal
# SK-MEL-5 melanoma = tested on: SK-MEL-5 melanoma
# HOP-92 NSCLC = tested on: HOP-92 NSCLC
# MDA-MB-231 breast = tested on: MDA-MB-231 breast
# RXF 393 renal = tested on: RXF 393 renal
# SF-268 CNS = tested on: SF-268 CNS
# A549 NSCLC = tested on: A549 NSCLC
# SW-620 colon = tested on: SW-620 colon
# HT29 colon = tested on: HT29 colon
# MCF7 breast = tested on: MCF7 breast
# UACC-62 melanoma = tested on: UACC-62 melanoma
# COLO 205 colon = tested on: COLO 205 colon
# MDA-MB-435 = tested on: MDA-MB-435
# CAKI-1 renal = tested on: CAKI-1 renal
# OVCAR-3 ovarian = tested on: OVCAR-3 ovarian
# SF-295 CNS = tested on: SF-295 CNS
# BT-549 breast = tested on: BT-549 breast
# A498 renal = tested on: A498 renal
# LOX IMVI melanoma = tested on: LOX IMVI melanoma
smiles,measurement,setting,value
Cc1nnc2sc(Cc3cnc(N)s3)nn12,TGI,HCC-2998 colon,> 100 µM
same,TGI,OVCAR-5 ovarian,> 100 µM
same,TGI,ACHN renal,> 100 µM
same,TGI,SK-OV-3 ovarian,> 100 µM
same,TGI,SK-MEL-2 melanoma,> 100 µM
same,TGI,SNB-75 CNS,> 100 µM
same,TGI,NCI-H226 lung,> 100 µM
same,TGI,NCI/ADR-RES ovarian,> 100 µM
same,TGI,EKVX NSCLC,> 100 µM
same,TGI,TK-10 renal,> 100 µM
same,TGI,T-47D breast,> 100 µM
same,TGI,RPMI-8226 leukemia,> 100 µM
same,TGI,K-562 leukemia,> 100 µM
same,TGI,KM12 colon,> 100 µM
same,TGI,UACC-257 melanoma,> 100 µM
same,TGI,HS 578T breast,> 100 µM
same,TGI,OVCAR-8 ovarian,> 100 µM
same,TGI,SN12C renal,> 100 µM
same,TGI,NCI-H460 lung,> 100 µM
same,TGI,HOP-62 NSCLC,> 100 µM
same,TGI,MOLT-4 leukemia,> 100 µM
same,TGI,HCT-116 colon,> 100 µM
same,TGI,NCI-H23 lung,> 100 µM
same,TGI,SF-539 CNS,> 100 µM
same,TGI,DU-145 prostate,> 100 µM
same,TGI,U251 CNS,> 100 µM
same,TGI,HCT-15 colon,> 100 µM
same,TGI,MALME-3M melanoma,> 100 µM
same,TGI,OVCAR-4 ovarian,> 100 µM
same,TGI,CCRF-CEM leukemia,> 100 µM
same,TGI,IGROV1 ovarian,> 100 µM
same,TGI,SK-MEL-28 melanoma,> 100 µM
same,TGI,PC-3 prostate,> 100 µM
same,TGI,SNB-19 CNS,> 100 µM
same,TGI,SR leukemia,> 100 µM
same,TGI,786-0 renal,> 100 µM
same,TGI,M14 melanoma,> 100 µM
same,TGI,NCI-H522 lung,> 100 µM
same,TGI,HL-60(TB) leukemia,> 100 µM
same,TGI,UO-31 renal,> 100 µM
same,TGI,SK-MEL-5 melanoma,> 100 µM
same,TGI,HOP-92 NSCLC,> 100 µM
same,TGI,MDA-MB-231 breast,> 100 µM
same,TGI,RXF 393 renal,> 100 µM
same,TGI,SF-268 CNS,> 100 µM
same,TGI,A549 NSCLC,> 100 µM
same,TGI,SW-620 colon,> 100 µM
same,TGI,HT29 colon,> 100 µM
same,TGI,MCF7 breast,> 100 µM
same,TGI,UACC-62 melanoma,> 100 µM
same,TGI,COLO 205 colon,> 100 µM
Cn1cc(-c2ccc(-c3cn(C)c4ncccc34)[nH]2)c2cccnc21,GI50,MDA-MB-435,24 µM
same,TGI,MDA-MB-435,> 100 µM
same,GI50,HCC-2998 colon,2.51 µM
same,TGI,HCC-2998 colon,5.89 µM
same,GI50,OVCAR-5 ovarian,1.65 µM
same,TGI,OVCAR-5 ovarian,3.59 µM
same,GI50,ACHN renal,1.62 µM
same,TGI,ACHN renal,3.08 µM
same,GI50,SK-OV-3 ovarian,25.1 µM
same,TGI,SK-OV-3 ovarian,> 100 µM
same,GI50,SK-MEL-2 melanoma,1.91 µM
same,TGI,SK-MEL-2 melanoma,4.04 µM
same,GI50,SNB-75 CNS,1.82 µM
same,TGI,SNB-75 CNS,4.34 µM
same,GI50,NCI-H226 lung,> 67.1 µM
same,TGI,NCI-H226 lung,> 100 µM
same,GI50,NCI/ADR-RES ovarian,2.93 µM
same,TGI,NCI/ADR-RES ovarian,9.59 µM
same,GI50,EKVX NSCLC,1.62 µM
same,TGI,EKVX NSCLC,3.34 µM
same,GI50,TK-10 renal,1.48 µM
same,TGI,TK-10 renal,2.88 µM
same,GI50,CAKI-1 renal,1.44 µM
same,TGI,CAKI-1 renal,4.03 µM
same,GI50,RPMI-8226 leukemia,1.94 µM
same,TGI,RPMI-8226 leukemia,6.88 µM
same,GI50,OVCAR-3 ovarian,1.63 µM
same,TGI,OVCAR-3 ovarian,3.3 µM
same,GI50,SF-295 CNS,4.28 µM
same,TGI,SF-295 CNS,12.1 µM
same,GI50,K-562 leukemia,1.76 µM
same,TGI,K-562 leukemia,8.11 µM
same,GI50,KM12 colon,2.02 µM
same,TGI,KM12 colon,4.23 µM
same,GI50,UACC-257 melanoma,2.93 µM
same,TGI,UACC-257 melanoma,19.6 µM
same,GI50,HS 578T breast,1.95 µM
same,TGI,HS 578T breast,6.42 µM
same,GI50,OVCAR-8 ovarian,2.44 µM
same,TGI,OVCAR-8 ovarian,6.45 µM
same,GI50,SN12C renal,7.26 µM
same,TGI,SN12C renal,> 100 µM
same,GI50,NCI-H460 lung,10 µM
same,TGI,NCI-H460 lung,> 100 µM
same,GI50,HOP-62 NSCLC,3.02 µM
same,TGI,HOP-62 NSCLC,24.8 µM
same,GI50,MOLT-4 leukemia,10.2 µM
same,TGI,MOLT-4 leukemia,> 100 µM
same,GI50,HCT-116 colon,2.81 µM
same,TGI,HCT-116 colon,12.4 µM
same,GI50,NCI-H23 lung,3.18 µM
same,TGI,NCI-H23 lung,12.7 µM
same,GI50,SF-539 CNS,1.59 µM
same,TGI,SF-539 CNS,3.32 µM
same,GI50,DU-145 prostate,> 100 µM
same,TGI,DU-145 prostate,> 100 µM
same,GI50,U251 CNS,1.66 µM
same,TGI,U251 CNS,3.17 µM
same,GI50,HCT-15 colon,1.69 µM
same,TGI,HCT-15 colon,4.63 µM
same,GI50,MALME-3M melanoma,2.7 µM
same,TGI,MALME-3M melanoma,7.12 µM
same,GI50,BT-549 breast,1.07 µM
same,TGI,BT-549 breast,2.79 µM
same,GI50,OVCAR-4 ovarian,0.638 µM
same,TGI,OVCAR-4 ovarian,1.61 µM
same,GI50,CCRF-CEM leukemia,2.27 µM
same,TGI,CCRF-CEM leukemia,7.56 µM
same,GI50,A498 renal,> 26.3 µM
same,TGI,A498 renal,> 100 µM
same,GI50,IGROV1 ovarian,4.5 µM
same,TGI,IGROV1 ovarian,53.4 µM
same,GI50,SK-MEL-28 melanoma,3.33 µM
same,TGI,SK-MEL-28 melanoma,10.9 µM
same,GI50,PC-3 prostate,1.43 µM
same,TGI,PC-3 prostate,3.38 µM
same,GI50,SNB-19 CNS,2.65 µM
same,TGI,SNB-19 CNS,8.03 µM
same,GI50,SR leukemia,1.62 µM
same,TGI,SR leukemia,> 22.1 µM
same,GI50,786-0 renal,4.64 µM
same,TGI,786-0 renal,38.6 µM
same,GI50,M14 melanoma,1.94 µM
same,TGI,M14 melanoma,3.97 µM
same,GI50,NCI-H522 lung,0.19 µM
same,TGI,NCI-H522 lung,0.451 µM
same,GI50,HL-60(TB) leukemia,1.87 µM
same,TGI,HL-60(TB) leukemia,7.48 µM
same,GI50,UO-31 renal,1.57 µM
same,TGI,UO-31 renal,3.01 µM
same,GI50,SK-MEL-5 melanoma,1.6 µM
same,TGI,SK-MEL-5 melanoma,3.47 µM
same,GI50,HOP-92 NSCLC,0.448 µM
same,TGI,HOP-92 NSCLC,2.13 µM
same,GI50,MDA-MB-231 breast,1.79 µM
same,TGI,MDA-MB-231 breast,4.08 µM
same,GI50,LOX IMVI melanoma,2 µM
same,TGI,LOX IMVI melanoma,3.93 µM
same,GI50,RXF 393 renal,1.52 µM
same,TGI,RXF 393 renal,3.65 µM
same,GI50,SF-268 CNS,2.23 µM
same,TGI,SF-268 CNS,5.45 µM
same,GI50,A549 NSCLC,7.84 µM
same,TGI,A549 NSCLC,> 100 µM
same,GI50,SW-620 colon,2.32 µM
same,TGI,SW-620 colon,5.34 µM
same,GI50,HT29 colon,10 µM
same,TGI,HT29 colon,> 100 µM
same,GI50,MCF7 breast,5.54 µM
same,TGI,MCF7 breast,> 100 µM
same,GI50,UACC-62 melanoma,1.63 µM
same,TGI,UACC-62 melanoma,3.76 µM
same,GI50,COLO 205 colon,1.82 µM
same,TGI,COLO 205 colon,3.84 µM
